PubChem BioAssay (NCI)
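Cultured in 96-well plates, cells were exposed to test compound for 48 hours across five concentrations. TGI: total growth inhibition.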

Assays:
Assay in all cases: NCI tumour cell line growth inhibition, 48 h
786-0 renal = test system: 786-0 renal
A498 renal = test system: A498 renal
A549 NSCLC = test system: A549 NSCLC
ACHN renal = test system: ACHN renal
CAKI-1 renal = test system: CAKI-1 renal
CCRF-CEM leukemia = test system: CCRF-CEM leukemia
COLO 205 colon = test system: COLO 205 colon
DLD-1 colon = test system: DLD-1 colon
DMS 114 small cell lung = test system: DMS 114 small cell lung
DMS 273 small cell lung = test system: DMS 273 small cell lung
EKVX NSCLC = test system: EKVX NSCLC
HCC-2998 colon = test system: HCC-2998 colon
HCT-116 colon = test system: HCT-116 colon
HCT-15 colon = test system: HCT-15 colon
HL-60(TB) leukemia = test system: HL-60(TB) leukemia
HOP-18 NSCLC = test system: HOP-18 NSCLC
HOP-62 NSCLC = test system: HOP-62 NSCLC
HOP-92 NSCLC = test system: HOP-92 NSCLC
HT29 colon = test system: HT29 colon
IGROV1 ovarian = test system: IGROV1 ovarian
K-562 leukemia = test system: K-562 leukemia
KM12 colon = test system: KM12 colon
KM20L2 colon = test system: KM20L2 colon
LOX IMVI melanoma = test system: LOX IMVI melanoma
LXFL 529 NSCLC = test system: LXFL 529 NSCLC
M14 melanoma = test system: M14 melanoma
M19-MEL melanoma = test system: M19-MEL melanoma
MALME-3M melanoma = test system: MALME-3M melanoma
NCI-H226 lung = test system: NCI-H226 lung
NCI-H23 lung = test system: NCI-H23 lung
NCI-H460 lung = test system: NCI-H460 lung
OVCAR-3 ovarian = test system: OVCAR-3 ovarian
OVCAR-4 ovarian = test system: OVCAR-4 ovarian
OVCAR-5 ovarian = test system: OVCAR-5 ovarian
OVCAR-8 ovarian = test system: OVCAR-8 ovarian
RPMI-8226 leukemia = test system: RPMI-8226 leukemia
RXF 393 renal = test system: RXF 393 renal
RXF-631 renal = test system: RXF-631 renal
SF-268 CNS = test system: SF-268 CNS
SF-539 CNS = test system: SF-539 CNS
SK-MEL-2 melanoma = test system: SK-MEL-2 melanoma
SK-MEL-28 melanoma = test system: SK-MEL-28 melanoma
SK-MEL-5 melanoma = test system: SK-MEL-5 melanoma
SK-OV-3 ovarian = test system: SK-OV-3 ovarian
SN12C renal = test system: SN12C renal
SNB-19 CNS = test system: SNB-19 CNS
SNB-75 CNS = test system: SNB-75 CNS
SNB-78 CNS = test system: SNB-78 CNS
SW-620 colon = test system: SW-620 colon
TK-10 renal = test system: TK-10 renal
U251 CNS = test system: U251 CNS
UACC-257 melanoma = test system: UACC-257 melanoma
UACC-62 melanoma = test system: UACC-62 melanoma
UO-31 renal = test system: UO-31 renal
XF 498 CNS = test system: XF 498 CNS
BT-549 breast = test system: BT-549 breast
DU-145 prostate = test system: DU-145 prostate
HS 578T breast = test system: HS 578T breast
MCF7 breast = test system: MCF7 breast
MDA-MB-231 breast = test system: MDA-MB-231 breast
MDA-MB-435 = test system: MDA-MB-435
MDA-N = test system: MDA-N
MOLT-4 leukemia = test system: MOLT-4 leukemia
NCI-H522 lung = test system: NCI-H522 lung
NCI/ADR-RES ovarian = test system: NCI/ADR-RES ovarian
PC-3 prostate = test system: PC-3 prostate
SF-295 CNS = test system: SF-295 CNS
SR leukemia = test system: SR leukemia
T-47D breast = test system: T-47D breast

## Cc1cc(N(CCC#N)CCC#N)ccc1C=Nc1ccc(C(=O)NN2C(=O)/C(=C/c3ccc(N(CCC#N)CCC#N)cc3)N=C2c2cc([N+](=O)[O-])ccc2Cl)cc1
786-0 renal
  TGI: > 100 µM
A498 renal
  TGI: > 100 µM
A549 NSCLC
  TGI: > 100 µM
ACHN renal
  TGI: > 100 µM
CAKI-1 renal
  TGI: > 100 µM
CCRF-CEM leukemia
  TGI: > 100 µM
COLO 205 colon
  TGI: > 100 µM
DLD-1 colon
  TGI: > 100 µM
DMS 114 small cell lung
  TGI: > 100 µM
DMS 273 small cell lung
  TGI: > 100 µM
EKVX NSCLC
  TGI: > 100 µM
HCC-2998 colon
  TGI: > 100 µM
HCT-116 colon
  TGI: > 100 µM
HCT-15 colon
  TGI: > 100 µM
HL-60(TB) leukemia
  TGI: > 100 µM
HOP-18 NSCLC
  TGI: > 100 µM
HOP-62 NSCLC
  TGI: > 100 µM
HOP-92 NSCLC
  TGI: > 100 µM
HT29 colon
  TGI: > 100 µM
IGROV1 ovarian
  TGI: > 100 µM
K-562 leukemia
  TGI: > 100 µM
KM12 colon
  TGI: > 100 µM
KM20L2 colon
  TGI: > 100 µM
LOX IMVI melanoma
  TGI: > 100 µM
LXFL 529 NSCLC
  TGI: > 100 µM
M14 melanoma
  TGI: > 100 µM
M19-MEL melanoma
  TGI: > 100 µM
MALME-3M melanoma
  TGI: > 100 µM
NCI-H226 lung
  TGI: > 100 µM
NCI-H23 lung
  TGI: > 100 µM
NCI-H460 lung
  TGI: > 100 µM
OVCAR-3 ovarian
  TGI: > 100 µM
OVCAR-4 ovarian
  TGI: > 100 µM
OVCAR-5 ovarian
  TGI: > 100 µM
OVCAR-8 ovarian
  TGI: > 100 µM
RPMI-8226 leukemia
  TGI: > 100 µM
RXF 393 renal
  TGI: > 100 µM
RXF-631 renal
  TGI: > 100 µM
SF-268 CNS
  TGI: > 100 µM
SF-539 CNS
  TGI: > 100 µM
SK-MEL-2 melanoma
  TGI: > 100 µM
SK-MEL-28 melanoma
  TGI: > 100 µM
SK-MEL-5 melanoma
  TGI: > 100 µM
SK-OV-3 ovarian
  TGI: > 100 µM
SN12C renal
  TGI: > 100 µM
SNB-19 CNS
  TGI: > 100 µM
SNB-75 CNS
  TGI: > 100 µM
SNB-78 CNS
  TGI: > 100 µM
SW-620 colon
  TGI: > 100 µM
TK-10 renal
  TGI: > 100 µM
U251 CNS
  TGI: > 100 µM
UACC-257 melanoma
  TGI: > 100 µM
UACC-62 melanoma
  TGI: > 100 µM
UO-31 renal
  TGI: > 100 µM
XF 498 CNS
  TGI: > 100 µM

## NC(=O)c1cccc([C@@H]2O[C@H](CO)[C@@H](O)[C@H]2O)c1
786-0 renal
  TGI: 12.3 µM
A498 renal
  TGI: > 100 µM
A549 NSCLC
  TGI: > 100 µM
ACHN renal
  TGI: 71.3 µM
BT-549 breast
  TGI: 43.4 µM
CAKI-1 renal
  TGI: > 69.1 µM
CCRF-CEM leukemia
  TGI: 15.4 µM
COLO 205 colon
  TGI: 48.7 µM
DLD-1 colon
  TGI: 35.9 µM
DMS 114 small cell lung
  TGI: 32.7 µM
DMS 273 small cell lung
  TGI: 22.9 µM
DU-145 prostate
  TGI: > 50.6 µM
EKVX NSCLC
  TGI: > 100 µM
HCC-2998 colon
  TGI: > 87.6 µM
HCT-116 colon
  TGI: 34.6 µM
HCT-15 colon
  TGI: 11.7 µM
HL-60(TB) leukemia
  TGI: 10.2 µM
HOP-18 NSCLC
  TGI: 68.6 µM
HOP-62 NSCLC
  TGI: 28 µM
HOP-92 NSCLC
  TGI: > 69.6 µM
HS 578T breast
  TGI: 74.5 µM
HT29 colon
  TGI: 99 µM
IGROV1 ovarian
  TGI: 85.6 µM
K-562 leukemia
  TGI: 41.3 µM
KM12 colon
  TGI: 15.9 µM
KM20L2 colon
  TGI: > 94.1 µM
LOX IMVI melanoma
  TGI: > 85.4 µM
M14 melanoma
  TGI: 12.4 µM
M19-MEL melanoma
  TGI: 60.7 µM
MALME-3M melanoma
  TGI: > 100 µM
MCF7 breast
  TGI: > 100 µM
MDA-MB-231 breast
  TGI: > 100 µM
MDA-MB-435
  TGI: > 90.3 µM
MDA-N
  TGI: > 100 µM
MOLT-4 leukemia
  TGI: 8.45 µM
NCI-H226 lung
  TGI: 75.7 µM
NCI-H23 lung
  TGI: 35.4 µM
NCI-H460 lung
  TGI: > 100 µM
NCI-H522 lung
  TGI: 10.2 µM
NCI/ADR-RES ovarian
  TGI: 16.3 µM
OVCAR-3 ovarian
  TGI: 67.2 µM
OVCAR-4 ovarian
  TGI: 19.7 µM
OVCAR-5 ovarian
  TGI: > 100 µM
OVCAR-8 ovarian
  TGI: 9.55 µM
PC-3 prostate
  TGI: > 100 µM
RPMI-8226 leukemia
  TGI: 29.8 µM
RXF 393 renal
  TGI: 34.6 µM
RXF-631 renal
  TGI: 43.2 µM
SF-268 CNS
  TGI: 26.6 µM
SF-295 CNS
  TGI: 28.7 µM
SF-539 CNS
  TGI: 6.28 µM
SK-MEL-2 melanoma
  TGI: > 100 µM
SK-MEL-28 melanoma
  TGI: 29.6 µM
SK-MEL-5 melanoma
  TGI: 53.2 µM
SK-OV-3 ovarian
  TGI: 35.7 µM
SN12C renal
  TGI: 80 µM
SNB-19 CNS
  TGI: 34.3 µM
SNB-75 CNS
  TGI: 14.4 µM
SNB-78 CNS
  TGI: 24.4 µM
SR leukemia
  TGI: > 82.2 µM
SW-620 colon
  TGI: 42.8 µM
T-47D breast
  TGI: > 66.6 µM
TK-10 renal
  TGI: 99.1 µM
U251 CNS
  TGI: 32.4 µM
UACC-257 melanoma
  TGI: > 100 µM
UACC-62 melanoma
  TGI: 60 µM
UO-31 renal
  TGI: 15.7 µM
XF 498 CNS
  TGI: 7 µM
